Laboratory results: PubChem BioAssay AID1963843 (Molecular Pharmacology Branch, DTP, NCI, 2024)

Test system: 616215-338-R-J1-PDC complex spheroid viability
Assay: Anticancer human tumor 616215-338-R-J1-PDC patient-derived colon adenocarcinoma cell line growth inhibition [POLQ]
Conditions: for IC50: curve of first compound; for viability, T/C: stronger effect = lower value
Procedure, shortened: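 Complex spheroid viability model combining PDC tumour cells with endothelial (HUVEC) and MSC stromal cells. Novobiocin, ART-558 or RP6685 were tested singly and in combination with standard and investigational anticancer drugs. Each was titrated in half-log steps from near clinical Cmax, or from 10 microM where Cmax was unknown.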

[1] = second compound 0.0316 µM, first compound 0.0316 µM
[2] = second compound 0.0316 µM, first compound 0.1 µM
[3] = second compound 0.1 µM, first compound 0.0316 µM
[4] = second compound 0.1 µM, first compound 0.1 µM
[5] = second compound 0.316 µM, first compound 0.0316 µM
[6] = second compound 0.316 µM, first compound 0.1 µM
[7] = second compound 1 µM, first compound 0.0316 µM
[8] = second compound 1 µM, first compound 0.1 µM
[9] = second compound 3.16 µM, first compound 0.0316 µM
[10] = second compound 3.16 µM, first compound 0.1 µM
[11] = second compound 10 µM, first compound 0.0316 µM
[12] = second compound 10 µM, first compound 0.1 µM
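Note: spheroids exposed to compounds for one week before readout.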
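Throughout, for viability, T/C: percent viability relative to DMSO vehicle wells taken as 100%.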

CC(=O)O[C@H]1C(=O)[C@@]2(C)[C@H]([C@H](OC(=O)c3ccccc3)[C@]3(O)C[C@H](OC(=O)[C@H](O)[C@@H](NC(=O)c4ccccc4)c4ccccc4)C(C)=C1C3(C)C)[C@]1(OC(C)=O)CO[C@@H]1C[C@@H]2O + COC1C(OC(N)=O)C(O)C(Oc2ccc3c(O)c(NC(=O)c4ccc(O)c(CC=C(C)C)c4)c(=O)oc3c2C)OC1(C)C
IC50 (second compound 0.0316 µM): 41.8 nM | IC50 (second compound 0.1 µM): 45.4 nM | IC50 (second compound 0.316 µM): 25.2 nM | IC50 (second compound 1 µM): 26.9 nM | IC50 (second compound 3.16 µM): 29.3 nM | IC50 (second compound 10 µM): 29.8 nM | viability, T/C (second compound 0.0316 µM, first compound 0.00949 µM): 76.1% | viability, T/C (second compound 0.0316 µM, first compound 0.03 µM): 52.6% | viability, T/C (second compound 0.0316 µM, first compound 0.0949 µM): 41% | viability, T/C (second compound 0.0316 µM, first compound 0.3 µM): 38.6% | viability, T/C (second compound 0.0316 µM, first compound 0.949 µM): 34.3% | viability, T/C (second compound 0.0316 µM, first compound 3 µM): 30.5% | viability, T/C (second compound 0.1 µM, first compound 0.00949 µM): 89.7% | viability, T/C (second compound 0.1 µM, first compound 0.03 µM): 54% | viability, T/C (second compound 0.1 µM, first compound 0.0949 µM): 42.5% | viability, T/C (second compound 0.1 µM, first compound 0.3 µM): 35.3% | viability, T/C (second compound 0.1 µM, first compound 0.949 µM): 37.1% | viability, T/C (second compound 0.1 µM, first compound 3 µM): 32.6% | viability, T/C (second compound 0.316 µM, first compound 0.00949 µM): 97.3% | viability, T/C (second compound 0.316 µM, first compound 0.03 µM): 41.5% | viability, T/C (second compound 0.316 µM, first compound 0.0949 µM): 40.4% | viability, T/C (second compound 0.316 µM, first compound 0.3 µM): 38.3% | viability, T/C (second compound 0.316 µM, first compound 0.949 µM): 38.5% | viability, T/C (second compound 0.316 µM, first compound 3 µM): 31.8% | viability, T/C (second compound 1 µM, first compound 0.00949 µM): 96.5% | viability, T/C (second compound 1 µM, first compound 0.03 µM): 44.1% | viability, T/C (second compound 1 µM, first compound 0.0949 µM): 37.1% | viability, T/C (second compound 1 µM, first compound 0.3 µM): 33.4% | viability, T/C (second compound 1 µM, first compound 0.949 µM): 31.4% | viability, T/C (second compound 1 µM, first compound 3 µM): 31.7% | viability, T/C (second compound 3.16 µM, first compound 0.00949 µM): 84.2% | viability, T/C (second compound 3.16 µM, first compound 0.03 µM): 48.2% | viability, T/C (second compound 3.16 µM, first compound 0.0949 µM): 40.8% | viability, T/C (second compound 3.16 µM, first compound 0.3 µM): 31.4% | viability, T/C (second compound 3.16 µM, first compound 0.949 µM): 36.1% | viability, T/C (second compound 3.16 µM, first compound 3 µM): 32.2% | viability, T/C (second compound 10 µM, first compound 0.00949 µM): 87.6% | viability, T/C (second compound 10 µM, first compound 0.03 µM): 48.3% | viability, T/C (second compound 10 µM, first compound 0.0949 µM): 42.2% | viability, T/C (second compound 10 µM, first compound 0.3 µM): 34.2% | viability, T/C (second compound 10 µM, first compound 0.949 µM): 32.7% | viability, T/C (second compound 10 µM, first compound 3 µM): 36.5%

O=C(c1cc(Cc2n[nH]c(=O)c3ccccc23)ccc1F)N1CCN(C(=O)C2CC2)CC1 + COC1C(OC(N)=O)C(O)C(Oc2ccc3c(O)c(NC(=O)c4ccc(O)c(CC=C(C)C)c4)c(=O)oc3c2C)OC1(C)C
IC50 (second compound 0.0316 µM): > 10000 nM | IC50 (second compound 0.1 µM): > 10000 nM | IC50 (second compound 0.316 µM): > 10000 nM | IC50 (second compound 1 µM): > 10000 nM | IC50 (second compound 3.16 µM): > 10000 nM | IC50 (second compound 10 µM): > 10000 nM | viability, T/C [1]: 103% | viability, T/C [2]: 99.2% | viability, T/C (second compound 0.0316 µM, first compound 0.316 µM): 107% | viability, T/C (second compound 0.0316 µM, first compound 1 µM): 105% | viability, T/C (second compound 0.0316 µM, first compound 3.16 µM): 109% | viability, T/C (second compound 0.0316 µM, first compound 10 µM): 87.8% | viability, T/C [3]: 102% | viability, T/C [4]: 89% | viability, T/C (second compound 0.1 µM, first compound 0.316 µM): 98.5% | viability, T/C (second compound 0.1 µM, first compound 1 µM): 99.8% | viability, T/C (second compound 0.1 µM, first compound 3.16 µM): 110% | viability, T/C (second compound 0.1 µM, first compound 10 µM): 85.7% | viability, T/C [5]: 102% | viability, T/C [6]: 113% | viability, T/C (second compound 0.316 µM, first compound 0.316 µM): 103% | viability, T/C (second compound 0.316 µM, first compound 1 µM): 101% | viability, T/C (second compound 0.316 µM, first compound 3.16 µM): 109% | viability, T/C (second compound 0.316 µM, first compound 10 µM): 98.2% | viability, T/C [7]: 107% | viability, T/C [8]: 108% | viability, T/C (second compound 1 µM, first compound 0.316 µM): 102% | viability, T/C (second compound 1 µM, first compound 1 µM): 101% | viability, T/C (second compound 1 µM, first compound 3.16 µM): 97% | viability, T/C (second compound 1 µM, first compound 10 µM): 93.4% | viability, T/C [9]: 99.6% | viability, T/C [10]: 95% | viability, T/C (second compound 3.16 µM, first compound 0.316 µM): 96.7% | viability, T/C (second compound 3.16 µM, first compound 1 µM): 94.7% | viability, T/C (second compound 3.16 µM, first compound 3.16 µM): 109% | viability, T/C (second compound 3.16 µM, first compound 10 µM): 88.2% | viability, T/C [11]: 104% | viability, T/C [12]: 94% | viability, T/C (second compound 10 µM, first compound 0.316 µM): 106% | viability, T/C (second compound 10 µM, first compound 1 µM): 105% | viability, T/C (second compound 10 µM, first compound 3.16 µM): 95.1% | viability, T/C (second compound 10 µM, first compound 10 µM): 84.5%

Cn1ncnc1[C@H]1c2n[nH]c(=O)c3cc(F)cc(c23)N[C@@H]1c1ccc(F)cc1 + Nc1ccc(C#CCN(C(=O)Cc2ncc(C(F)(F)F)cc2C(F)(F)F)c2ccc(F)cc2)nn1
IC50 (second compound 0.0316 µM): > 100 nM | IC50 (second compound 0.1 µM): > 100 nM | IC50 (second compound 0.316 µM): > 100 nM | IC50 (second compound 1 µM): > 100 nM | IC50 (second compound 3.16 µM): > 100 nM | IC50 (second compound 10 µM): > 100 nM | viability, T/C (second compound 0.0316 µM, first compound 0.000316 µM): 104% | viability, T/C (second compound 0.0316 µM, first compound 0.001 µM): 106% | viability, T/C (second compound 0.0316 µM, first compound 0.00316 µM): 99.7% | viability, T/C (second compound 0.0316 µM, first compound 0.01 µM): 95.1% | viability, T/C [1]: 88.5% | viability, T/C [2]: 86.7% | viability, T/C (second compound 0.1 µM, first compound 0.000316 µM): 112% | viability, T/C (second compound 0.1 µM, first compound 0.001 µM): 91.6% | viability, T/C (second compound 0.1 µM, first compound 0.00316 µM): 107% | viability, T/C (second compound 0.1 µM, first compound 0.01 µM): 113% | viability, T/C [3]: 108% | viability, T/C [4]: 77.6% | viability, T/C (second compound 0.316 µM, first compound 0.000316 µM): 106% | viability, T/C (second compound 0.316 µM, first compound 0.001 µM): 97.3% | viability, T/C (second compound 0.316 µM, first compound 0.00316 µM): 111% | viability, T/C (second compound 0.316 µM, first compound 0.01 µM): 97.2% | viability, T/C [5]: 104% | viability, T/C [6]: 83% | viability, T/C (second compound 1 µM, first compound 0.000316 µM): 108% | viability, T/C (second compound 1 µM, first compound 0.001 µM): 99.9% | viability, T/C (second compound 1 µM, first compound 0.00316 µM): 110% | viability, T/C (second compound 1 µM, first compound 0.01 µM): 93.9% | viability, T/C [7]: 91.2% | viability, T/C [8]: 77.6% | viability, T/C (second compound 3.16 µM, first compound 0.000316 µM): 99.4% | viability, T/C (second compound 3.16 µM, first compound 0.001 µM): 98% | viability, T/C (second compound 3.16 µM, first compound 0.00316 µM): 103% | viability, T/C (second compound 3.16 µM, first compound 0.01 µM): 90.5% | viability, T/C [9]: 99.3% | viability, T/C [10]: 95.7% | viability, T/C (second compound 10 µM, first compound 0.000316 µM): 94.8% | viability, T/C (second compound 10 µM, first compound 0.001 µM): 98.7% | viability, T/C (second compound 10 µM, first compound 0.00316 µM): 101% | viability, T/C (second compound 10 µM, first compound 0.01 µM): 90.9% | viability, T/C [11]: 89.9% | viability, T/C [12]: 65.1%
